In PubChem BioAssay (NCI):
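How tested: cells in 96-well plates exposed to compound for 48 hours at five concentrations. GI50 marks 50% less growth. TGI: concentration producing complete growth inhibition.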

Legend:
Test in all cases: NCI anticancer screen, dose series, 48 h
SW-620 colon = test system: SW-620 colon
CAKI-1 renal = test system: CAKI-1 renal
HCC-2998 colon = test system: HCC-2998 colon
RPMI-8226 leukemia = test system: RPMI-8226 leukemia
NCI-H460 lung = test system: NCI-H460 lung
A549 NSCLC = test system: A549 NSCLC
A498 renal = test system: A498 renal
HOP-62 NSCLC = test system: HOP-62 NSCLC
786-0 renal = test system: 786-0 renal
MALME-3M melanoma = test system: MALME-3M melanoma

Row | Compound | GI50 (SW-620 colon) [nM] | TGI (SW-620 colon) [µM] | GI50 (CAKI-1 renal) [nM] | TGI (CAKI-1 renal) [µM] | GI50 (HCC-2998 colon) [µM] | TGI (HCC-2998 colon) [µM] | GI50 (RPMI-8226 leukemia) [nM] | TGI (RPMI-8226 leukemia) [µM] | GI50 (NCI-H460 lung) [nM] | TGI (NCI-H460 lung) [µM] | GI50 (A549 NSCLC) [nM] | TGI (A549 NSCLC) [µM] | GI50 (A498 renal) [nM] | TGI (A498 renal) [µM] | GI50 (HOP-62 NSCLC) [nM] | TGI (HOP-62 NSCLC) [µM] | GI50 (786-0 renal) [nM] | TGI (786-0 renal) [µM] | GI50 (MALME-3M melanoma) [nM] | TGI (MALME-3M melanoma) [µM]
1 | O=C1C2C(C(=O)N1CC[Se][Se]CCN1C(=O)C3C(C1=O)[C@H]1C=C[C@@H]3C1)[C@H]1C=C[C@@H]2C1 (stereo not given in full) | 2620 | 7.59 | 301 | 0.828 | 2.62 | 8.92 | 2190 | 5.17 | 361 | 1.69 | 447 | 4.72 | 686 | 2.26 | 488 | 2.66 | 369 | 1.29 | 277 | 1.08
2 | CCN(CC)CCS(=O)(=O)CCNc1ccnc2cc(Cl)ccc12 | 608 | 12.5 | 782 | 6.08 | 8.81 | > 23.8 | 1410 | 21.6 | 2740 | > 25.7 | 4120 | > 61.7 | 2250 | 8.28 | 4990 | > 100 | 2840 | 19.9 | 2150 | 13.3
3 | CC(C)=CC(=O)CC(=O)C(=O)NCCNC(=O)C(=O)CC(=O)C=C(C)C | – | > 50 | – | > 50 | – | > 50 | – | > 50 | – | > 50 | – | > 50 | – | > 50 | – | > 50 | – | > 50 | – | > 50
4 | Cc1cc(OC(=O)c2c(C)cc(OC(=O)c3c(C)cc(O)cc3O)cc2O)cc(O)c1C(=O)O | – | > 100 | – | > 100 | – | > 100 | – | > 100 | – | > 100 | – | > 100 | – | > 100 | – | > 100 | – | > 100 | – | > 100
5 | CC1=C(C(=O)CC(=O)C(=O)Nc2ccccc2C)Sc2ccccc2N1 | – | > 54.1 | – | > 100 | – | > 100 | – | > 65.5 | – | > 56.2 | – | > 100 | – | > 100 | – | > 100 | – | > 69.1 | – | > 100
6 | O=c1c2ccccc2n2cnc3ccc(NCCNCCO)c1c32 | – | 5.11 | – | 9.46 | – | 11.3 | – | 17 | – | 7.58 | – | 3.66 | – | 6.96 | – | 10.9 | – | 10.4 | – | 9.3
